Reference: patent US11344510B2, “Arylcyclohexylamine derivatives and their use in the treatment of psychiatric disorders” (Gilgamesh Pharmaceuticals, Inc., priority 2019, dated 2022)
Read-outs that look alike come from different tables or passages of the source.

What was measured:
[1] = Oral bioavailability in mice, Method B; type: in vivo; settings: CD-1 mice; for AUC0-inf (iv) / AUC0-last (po) / AUC(0-inf): Method B: values represent AUC0-last (footnote); for F: 10 mg/kg; for half-life / Cmax / AUC(0-inf): male, mouse
Experimental: Animals. Male CD-1 mice were used in these studies Animals were randomly assigned to treatment groups and were fasted for 4 h before oral dosing.
Drugs. Test compounds were dissolved in a vehicle consisting of normal saline (compounds 19S and 88R) or a mixture of 5% v/v N-methyl-2-pyrrolidone, 5% v/v Solutol HS-15, and 90% v/v normal saline (compounds 11S, 11R, 114S, and 114R). They were then administered intravenously (iv) or orally (po) at a dose of 10 mg/kg (calculated based on freebase) and at a volume of 5 mL/kg body weight. Compounds were tested as the racemates (indicated by “rac” nomenclature) or pure enantiomers (indicated by “R” or “S” nomenclature).
Sample Collection and Bioanalysis. Blood samples (approximately 60 μL) were collected under light isoflurane anesthesia (Surgivet®) from the retro orbital plexus at 0.08, 0.25, 0.5, 1, 2, 4, 8, and 24 h (4 animals per time point) Immediately after blood collection, plasma was harvested by centrifugation at 4000 rpm for 10 min at 4° C. and samples were stored at −70±10° C. until bioanalysis. Following blood collection, animals were immediately sacrificed, the abdominal vena-cava was cut open, and the whole body was perfused from the heart using 10 mL of normal saline, and brain samples were collected from all animals After isolation, brain samples were rinsed three times in ice-cold normal saline (for 5-10 seconds/rinse using ˜5-10 mL normal saline in disposable petri dish for each rinse) and dried on blotting paper. Brain samples were homogenized using ice-cold phosphate-buffered saline (pH 7.4). Total homogenate volume was three times the tissue weight. All homogenates were stored at −70±10° C. until bioanalysis. For bioanalysis, 25 μL aliquots of plasma/brain study samples or spiked plasma/brain calibration standards were added to individual pre-labeled micro-centrifuge tubes followed by 100 μL of an internal standard solution (glipizide, 500 ng/mL in acetonitrile) except for blanks, where 100 μL of acetonitrile was added. Samples were vortexed for 5 minutes and then centrifuged for 10 minutes at 4000 rpm at 4° C. Following centrifugation, 100 μL of each clear supernatant was transferred to a 96 well plate and analyzed with a fit-for-purpose LC-MS/MS method, with authentic samples of each analyte used for calibration and identification.
Data Analysis. Pharmacokinetic parameters were estimated using the non-compartmental analysis tool of Phoenix® WinNonlin software (Ver 8.0).

[2] = molecular target: T1, dopamine transporter (DAT) (Homo sapiens, UniProt Q01959); assay: Fluorescent substrate uptake inhibition, DAT; type: cell-based; settings: for inhibition at 10 µM: CHO cells expressing DAT
T1 construct: expressed in transfected cells; host or cells: CHO (uptake)

[3] = system: monoamine transporters, MATs (SERT, NET, DAT, VMAT2); assay: Monoamine uptake inhibition, monoamine transporters collectively; type: cell-based; settings: in words
Experimental: The ability of the compounds of the present invention to inhibit uptake of monoamines by the serotonin transporter (SERT), norepinephrine transporter (NET), dopamine transporter (DAT), and vesicular monoamine transporter 2 (VMAT2) (collectively monoamine transporters, MATs) was measured using fluorescent substrate uptake assays in transfected cells (Table 14). The binding affinities of select compounds were also determined in radioligand displacement assays at SERT, NET, and/or DAT (Table 14).
Uptake Inhibition. The ability of test compounds to block monoamine uptake by SERT, NET, DAT, and VMAT2 was determined using the Neurotransmitter Transporter Uptake Assay Kit manufactured by Molecular Devices (Cat #R8173). Briefly, stably transfected cells expressing the MAT of interest (HEK293 cells for SERT and NET; CHO cells for DAT) were grown and plated into 384-well plates at a concentration of 20,000 cells per well. Plates were then incubated for 16-20 h at 37° C. and 5% CO2. The medium was then aspirated and replaced with 25 μL of assay buffer (20 mM HEPES in HBSS, containing 0.1% BSA) containing the test compounds at the appropriate concentrations. Plates were then centrifuged at 300 rpm for 15 s and then incubated at 37° C. for 30 minutes. At this time, 25 μL of the proprietary fluorescent dye solution was added, the plates were incubated at 37° C. for 60 minutes, and then fluorescence was quantified on a plate reader (excitation wavelength=440 nm, emission wavelength=520 nm). The proprietary dye solution contains a mixture of 1) a fluorescent dye that mimics the endogenous substrates of MATs and is thereby actively transported to the intracellular compartment in the absence of an inhibitor and 2) a masking dye that inhibits the fluorescence of dye 1 in the extracellular compartment. Therefore, the overall fluorescence of the system increases as the fluorescent dye is transported into the cells.

[4] = RLM stability (High Activity); type: in vitro ADME, Sprague Dawley rats; settings: male, Sprague Dawley, rat, liver microsomes, pH 7.4, Condition 2 (High Activity), 1 μM, 1.0 mg protein/mL
Experimental: RLM Stability (High Activity). Pooled RLM from male Sprague Dawley rats (XenoTech R1000, lot #1910100) were used. Microsomal incubations were carried out in 96-well plates in 5 aliquots of 40 μL each (one for each time point). Liver microsomal incubation medium consisted of PBS (100 mM, pH 7.4), MgCl2 (3.3 mM), NADPH (3 mM), glucose-6-phosphate (5.3 mM), and glucose-6-phosphate dehydrogenase (0.67 units/mL), with 1.0 mg of liver microsomal protein per mL. Control incubations were performed by replacing the NADPH-cofactor system with PBS. Test compounds (1 μM, final solvent concentration 1.6%) were incubated with microsomes at 37° C., shaking at 100 rpm. Incubations were performed in duplicate. Five time points over 60 minutes were analyzed. The reactions were stopped by adding 9 volumes of 90% acetonitrile-water to incubation aliquots, followed by protein sedimentation by centrifugation at 5500 rpm for 3 minutes. Supernatants were analyzed for parent compound remaining using a fit-for-purpose liquid chromatography-tandem mass spectrometry (LC-MS/MS) method, with authentic samples of each analyte used for identity confirmation.
Data Analysis. The elimination constant (kel), half-life (t1/2) and intrinsic clearance (Clint) were determined in a plot of […] versus time, using linear regression analysis.

[5] = calculated based on brain exposure (AUC0-last), Method B
[6] = brain, 10 mg/kg iv, Method B, read-out: t1/2 (iv)
[7] = plasma, 10 mg/kg iv, read-out: AUC0-inf (iv) (converted)
[8] = plasma, 10 mg/kg iv, Method B, read-out: t1/2 (iv)
[9] = plasma, 10 mg/kg po, read-out: AUC0-inf (po) (converted)
[10] = plasma, 10 mg/kg po, Method B, read-out: t1/2 (po)
[11] = plasma, Method B: based on AUC0-last

T1 sequence (Q01959 whole entry, species assumed): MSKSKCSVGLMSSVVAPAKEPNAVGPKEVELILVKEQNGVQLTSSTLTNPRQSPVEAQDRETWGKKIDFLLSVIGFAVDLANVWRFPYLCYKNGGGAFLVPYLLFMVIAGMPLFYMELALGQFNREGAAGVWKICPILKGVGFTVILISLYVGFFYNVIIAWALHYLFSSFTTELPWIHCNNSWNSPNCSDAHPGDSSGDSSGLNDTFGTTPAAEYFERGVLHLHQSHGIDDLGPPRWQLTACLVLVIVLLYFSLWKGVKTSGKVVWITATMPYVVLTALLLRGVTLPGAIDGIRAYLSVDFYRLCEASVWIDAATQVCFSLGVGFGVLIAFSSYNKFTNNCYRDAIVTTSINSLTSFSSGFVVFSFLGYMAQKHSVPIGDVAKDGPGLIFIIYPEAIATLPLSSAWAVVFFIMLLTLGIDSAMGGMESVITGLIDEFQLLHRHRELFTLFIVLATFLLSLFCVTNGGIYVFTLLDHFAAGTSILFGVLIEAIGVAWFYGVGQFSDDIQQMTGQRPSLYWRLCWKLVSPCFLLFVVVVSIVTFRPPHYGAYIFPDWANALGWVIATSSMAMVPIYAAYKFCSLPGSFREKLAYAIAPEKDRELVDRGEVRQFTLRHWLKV

SMILES	AUC0-inf (iv) ([1]; brain, 10 mg/kg iv)	AUC0-last (po) ([1]; brain, 10 mg/kg po)	F [1, 5]	half-life [1, 6]	Cmax ([1]; brain, 10 mg/kg po, Method B)	half-life ([1]; brain, 10 mg/kg po, Method B, read-out: t1/2 (po))	AUC(0-inf) [1, 7]	half-life [1, 8]	Cmax ([1]; plasma, 10 mg/kg po, Method B)	AUC(0-inf) [1, 9]	half-life [1, 10]	F [1, 11]	inhibition at 10 µM [2]	selectivity for NMDAR (over MATs) [3]	half-life at 1 μM [4]	microsomal CLint at 1 μM [4]	IC50 [2]
Cc1ccccc1[C@]1(N)CCCCC1=O [Compound 114R, (R)-2-amino-2-(o-tolyl)cyclohexan-1-one]	155,752 ng*min/g	38,185 ng*min/g	25%	0.32 h	683 ng/g	1.12 h	325 ng·h/mL	0.75 h	319 ng/mL	430 ng·h/mL	1.28 h	132%	6.2%	–	–	–	–
Cc1ccccc1[C@@]1(N)CCCCC1=O [Compound 114S, (S)-2-amino-2-(o-tolyl)cyclohexan-1-one]	244,634 ng*min/g	86,338 ng*min/g	35%	–	825 ng/g	–	757 ng·h/mL	1.34 h	746 ng/mL	1470 ng·h/mL	1.32 h	194%	-15.2%	greater selectivity for NMDAR	–	–	–
N[C@]1(c2ccccc2)CCCCC1=O [Compound 11S, (S)-2-amino-2-phenyl-cyclohexan-1-one]	434,023 ng*min/g	292,247 ng*min/g	67%	0.7 h	2190 ng/g	–	3420 ng·h/mL	1.06 h	2130 ng/mL	4200 ng·h/mL	–	123%	10.1%	greater selectivity for NMDAR	1.82 h	6 µL/min/mg	–
O=C1CCCCC1(c1ccccc1)N1CCCC1 (racemic) [Compound 27rac, 2-phenyl-2-(pyrrolidin-1-yl)cyclohexan-1-one]	–	–	–	–	–	–	–	–	–	–	–	–	49.5%	–	–	–	6.5 µM
O=C1CCCC[C@@]1(c1ccccc1)N1CCC1 [Compound 84S, (S)-2-(azetidin-1-yl)-2-phenyl-cyclohexan-1-one]	–	–	–	–	–	–	–	–	–	–	–	–	32.2%	–	0.505 h	23 µL/min/mg	19.5 µM
CN[C@]1(c2ccccc2)CCCCC1=O [Compound 14S, (S)-2-(methylamino)-2-phenylcyclohexan-1-one]	–	–	–	–	–	–	–	–	–	–	–	–	-4.5%	–	0.527 h	22 µL/min/mg	–
